According to PubChem BioAssay AID1745844 (Carcinogenic Potency Database (CPDB), 2022):
Active and inactive are the calls of the source. The rule behind the calls is not given here.

System: rodent lifetime carcinogenesis bioassay, tumor incidence TD50
Assay: chronic cancer bioassays in animals – CPDB, compiled studies (AID 1745844)
Settings: rat, in feed

OCC(CO)(CBr)CBr
TD50 (strain Fischer 344, males, site: kidney, lesion: tubule adenoma, dosed 12 weeks, study length 103 weeks): 970 mg/kg/day | TD50 (strain Fischer 344, males, site: kidney, lesion: tubule adenoma, dosed 104 weeks, study length 105 weeks): 1550 mg/kg/day | TD50 (strain Fischer 344, males, site: liver, lesion: hepatocellular adenoma + hepatoblastoma + hepatocellular carcinoma, dosed 12 weeks, study length 103 weeks): 702 mg/kg/day | TD50 (strain Fischer 344, males, site: liver, lesion: hepatocellular adenoma + hepatoblastoma + hepatocellular carcinoma, dosed 104 weeks, study length 105 weeks): 1840 mg/kg/day | TD50 (strain Fischer 344, males, site: lung, lesion: alveolar/bronchiolar adenoma + alveolar/bronchiolar carcinoma, dosed 12 weeks, study length 103 weeks): 52.4 mg/kg/day | TD50 (strain Fischer 344, males, site: lung, lesion: alveolar/bronchiolar adenoma + alveolar/bronchiolar carcinoma, dosed 104 weeks, study length 105 weeks): 729 mg/kg/day | TD50 (strain Fischer 344, males, site: lung, lesion: alveolar/bronchiolar adenoma, dosed 12 weeks, study length 103 weeks): 73.1 mg/kg/day | TD50 (strain Fischer 344, males, site: lung, lesion: alveolar/bronchiolar carcinoma, dosed 12 weeks, study length 103 weeks): 327 mg/kg/day | TD50 (strain Fischer 344, males, site: lung, lesion: alveolar/bronchiolar carcinoma, dosed 104 weeks, study length 105 weeks): 1300 mg/kg/day | TD50 (strain Fischer 344, males, site: lung, lesion: squamous-cell carcinoma, dosed 12 weeks, study length 103 weeks): 484 mg/kg/day | TD50 (strain Fischer 344, males, site: mammary gland, lesion: adenoma + fibroadenoma, dosed 104 weeks, study length 105 weeks): 262 mg/kg/day | TD50 (strain Fischer 344, males, site: mammary gland, lesion: fibroadenoma, dosed 12 weeks, study length 103 weeks): 78.3 mg/kg/day | TD50 (strain Fischer 344, males, site: mammary gland, lesion: fibroadenoma, dosed 104 weeks, study length 105 weeks): 275 mg/kg/day | TD50 (strain Fischer 344, males, site: palate + tongue, lesion: squamous-cell carcinoma + squamous-cell papilloma, dosed 12 weeks, study length 103 weeks): 24 mg/kg/day | TD50 (strain Fischer 344, males, site: palate + tongue, lesion: squamous-cell papilloma, dosed 12 weeks, study length 103 weeks): 24.6 mg/kg/day | TD50 (strain Fischer 344, males, site: palate + tongue, lesion: squamous-cell papilloma, dosed 104 weeks, study length 105 weeks): 300 mg/kg/day | TD50 (strain Fischer 344, males, site: palate, lesion: squamous-cell papilloma, dosed 12 weeks, study length 103 weeks): 115 mg/kg/day | TD50 (strain Fischer 344, males, site: palate, lesion: squamous-cell papilloma, dosed 104 weeks, study length 105 weeks): 808 mg/kg/day | TD50 (strain Fischer 344, males, site: pancreas, lesion: acinar-cell adenoma, dosed 12 weeks, study length 103 weeks): 193 mg/kg/day | TD50 (strain Fischer 344, males, site: pancreas, lesion: acinar-cell adenoma, dosed 104 weeks, study length 105 weeks): 516 mg/kg/day | TD50 (strain Fischer 344, males, site: pancreatic islets, lesion: islet-cell adenoma + islet-cell carcinoma, dosed 104 weeks, study length 105 weeks): 208 mg/kg/day | TD50 (strain Fischer 344, males, site: pituitary gland, lesion: pars distalis adenoma + pars distalis carcinoma, dosed 104 weeks, study length 105 weeks): 462 mg/kg/day | TD50 (strain Fischer 344, males, site: pituitary gland, lesion: pars distalis adenoma, dosed 12 weeks, study length 103 weeks): 67.3 mg/kg/day | TD50 (strain Fischer 344, males, site: pituitary gland, lesion: pars distalis adenoma, dosed 104 weeks, study length 105 weeks): 493 mg/kg/day | TD50 (strain Fischer 344, males, site: preputial gland, lesion: adenoma + carcinoma, dosed 12 weeks, study length 103 weeks): 39 mg/kg/day | TD50 (strain Fischer 344, males, site: preputial gland, lesion: adenoma + carcinoma, dosed 104 weeks, study length 105 weeks): 793 mg/kg/day | TD50 (strain Fischer 344, males, site: preputial gland, lesion: adenoma, dosed 12 weeks, study length 103 weeks): 22.8 mg/kg/day | TD50 (strain Fischer 344, males, site: preputial gland, lesion: adenoma, dosed 104 weeks, study length 105 weeks): 819 mg/kg/day | TD50 (strain Fischer 344, males, site: seminal vesicle, lesion: adenoma + carcinoma, dosed 12 weeks, study length 103 weeks): 453 mg/kg/day | TD50 (strain Fischer 344, males, site: skin, lesion: basal-cell adenoma + basal-cell carcinoma + keratoacanthoma + squamous-cell carcinoma + squamous-cell papilloma + trichoepitheliom, dosed 104 weeks, study length 105 weeks): 166 mg/kg/day | TD50 (strain Fischer 344, males, site: skin, lesion: basal-cell adenoma + basal-cell carcinoma + trichoepithelioma, dosed 104 weeks, study length 105 weeks): 720 mg/kg/day | TD50 (strain Fischer 344, males, site: skin, lesion: basal-cell adenoma + keratoacanthoma + squamous-cell carcinoma + squamous-cell papilloma + trichoepithelioma, dosed 12 weeks, study length 103 weeks): 16.9 mg/kg/day | TD50 (strain Fischer 344, males, site: skin, lesion: basal-cell adenoma + trichoepithelioma, dosed 12 weeks, study length 103 weeks): 64.6 mg/kg/day | TD50 (strain Fischer 344, males, site: skin, lesion: basal-cell adenoma, dosed 12 weeks, study length 103 weeks): 82.3 mg/kg/day | TD50 (strain Fischer 344, males, site: skin, lesion: basal-cell adenoma, dosed 104 weeks, study length 105 weeks): 1530 mg/kg/day | TD50 (strain Fischer 344, males, site: skin, lesion: keratoacanthoma, dosed 12 weeks, study length 103 weeks): 42.5 mg/kg/day | TD50 (strain Fischer 344, males, site: skin, lesion: keratoacanthoma, dosed 104 weeks, study length 105 weeks): 235 mg/kg/day | TD50 (strain Fischer 344, males, site: skin, lesion: squamous-cell carcinoma + squamous-cell papilloma, dosed 12 weeks, study length 103 weeks): 21.7 mg/kg/day | TD50 (strain Fischer 344, males, site: skin, lesion: squamous-cell carcinoma + squamous-cell papilloma, dosed 104 weeks, study length 105 weeks): 1130 mg/kg/day | TD50 (strain Fischer 344, males, site: skin, lesion: squamous-cell papilloma, dosed 12 weeks, study length 103 weeks): 46.2 mg/kg/day | TD50 (strain Fischer 344, males, site: skin, lesion: squamous-cell papilloma, dosed 104 weeks, study length 105 weeks): 1130 mg/kg/day | TD50 (strain Fischer 344, males, site: subcutaneous tissue, lesion: fibroma, dosed 12 weeks, study length 103 weeks): 111 mg/kg/day | TD50 (strain Fischer 344, males, site: subcutaneous tissue, lesion: fibroma, dosed 104 weeks, study length 105 weeks): 271 mg/kg/day | TD50 (strain Fischer 344, males, site: subcutaneous tissue, lesion: fibrosarcoma + fibroma + sarcoma, dosed 12 weeks, study length 103 weeks): 87.3 mg/kg/day | TD50 (strain Fischer 344, males, site: subcutaneous tissue, lesion: fibrosarcoma + fibroma + sarcoma, dosed 104 weeks, study length 105 weeks): 221 mg/kg/day | TD50 (strain Fischer 344, males, site: subcutaneous tissue, lesion: fibrosarcoma + sarcoma, dosed 12 weeks, study length 103 weeks): 654 mg/kg/day | TD50 (strain Fischer 344, males, site: subcutaneous tissue, lesion: fibrosarcoma + sarcoma, dosed 104 weeks, study length 105 weeks): 1080 mg/kg/day | TD50 (strain Fischer 344, males, site: subcutaneous tissue, lesion: sarcoma, dosed 104 weeks, study length 105 weeks): 1550 mg/kg/day | TD50 (strain Fischer 344, males, site: testis, lesion: interstitial-cell adenoma, bilateral + interstitial-cell adenoma, dosed 12 weeks, study length 103 weeks): 5.94 mg/kg/day | TD50 (strain Fischer 344, males, site: testis, lesion: interstitial-cell adenoma, bilateral + interstitial-cell adenoma, dosed 104 weeks, study length 105 weeks): 66.5 mg/kg/day | TD50 (strain Fischer 344, males, site: thyroid gland, lesion: c-cell adenoma + c-cell carcinoma, bilateral + c-cell carcinoma, dosed 104 weeks, study length 105 weeks): 675 mg/kg/day | TD50 (strain Fischer 344, males, site: thyroid gland, lesion: c-cell carcinoma, bilateral + c-cell carcinoma, dosed 104 weeks, study length 105 weeks): 1920 mg/kg/day | TD50 (strain Fischer 344, males, site: thyroid gland, lesion: follicular-cell adenoma + follicular-cell carcinoma, dosed 12 weeks, study length 103 weeks): 82.6 mg/kg/day | TD50 (strain Fischer 344, males, site: thyroid gland, lesion: follicular-cell adenoma + follicular-cell carcinoma, dosed 104 weeks, study length 105 weeks): 629 mg/kg/day | TD50 (strain Fischer 344, males, site: thyroid gland, lesion: follicular-cell adenoma, dosed 12 weeks, study length 103 weeks): 132 mg/kg/day | TD50 (strain Fischer 344, males, site: thyroid gland, lesion: follicular-cell carcinoma, dosed 104 weeks, study length 105 weeks): 1110 mg/kg/day | TD50 (strain Fischer 344, males, site: tongue, lesion: squamous-cell papilloma, dosed 12 weeks, study length 103 weeks): 30.8 mg/kg/day | TD50 (strain Fischer 344, males, site: tongue, lesion: squamous-cell papilloma, dosed 104 weeks, study length 105 weeks): 500 mg/kg/day | TD50 (strain Fischer 344, males, site: urinary bladder, lesion: transitional-cell carcinoma + transitional-cell papilloma, dosed 12 weeks, study length 103 weeks): 223 mg/kg/day | TD50 (strain Fischer 344, males, site: urinary bladder, lesion: transitional-cell carcinoma + transitional-cell papilloma, dosed 104 weeks, study length 105 weeks): 2320 mg/kg/day | TD50 (strain Sprague-Dawley Spartan, females, site: any site (literature study), lesion: several types, types named in the paper, dosed 104 weeks, study length 104 weeks): 1730 mg/kg/day (inactive) | carcinogen call (strain Sprague-Dawley Spartan, females, site: liver, lesion: hepatocellular carcinoma, dosed 104 weeks, study length 104 weeks): negative (inactive) | TD50 (strain Sprague-Dawley Spartan, females, site: liver, lesion: hepatocellular hyperplastic nodule, dosed 104 weeks, study length 104 weeks): 2550 mg/kg/day (inactive) | carcinogen call (strain Sprague-Dawley Spartan, males, site: any site (literature study), lesion: several types, types named in the paper, dosed 104 weeks, study length 104 weeks): negative (inactive) | carcinogen call (strain Sprague-Dawley Spartan, males, site: liver, lesion: hepatocellular carcinoma, dosed 104 weeks, study length 104 weeks): negative (inactive) | carcinogen call (strain Sprague-Dawley Spartan, males, site: liver, lesion: hepatocellular hyperplastic nodule, dosed 104 weeks, study length 104 weeks): negative (inactive)
